Patent US10618901B2 (GlaxoSmithKline Intellectual Property Development Limited, priority 2014, dated 2020)

Target: T1, LRRK2 Ser935 phosphorylation in SH-SY5Y cells over-expressing recombinant full length LRRK2 (Homo sapiens, UniProt Q5S007)
T1 construct: A BacMam virus expressing full length recombinant LRRK2 was purchased from Invitrogen; host or cells: SH-SY5Y (BacMam transduction)
Assay: Recombinant cellular LRRK2 AlphaScreen assay
Assay type: cell-based
Settings: read-out: pIC50 in the recombinant cellular LRRK2 alphaScreen assay (converted)
Text: Recombinant Cellular LRRK2 AlphaScreen Assay
To determine the activity of compounds against LRRK2 kinase activity in cells, the observed LRRK2 kinase-dependent modulation of LRRK2 Ser 935 phosphorylation (Dzamko et al., 2010, Biochem. J. 430: 405-413) was utilized to develop a quantitative 384 well plate-based immunoassay of LRRK2 Ser935 phosphorylation in the human neuroblastoma cell line SH-SY5Y, engineered to over-express recombinant full length LRRK2 protein.
A BacMam virus expressing full length recombinant LRRK2 was purchased from Invitrogen and amplified by inoculation of SF-9 cells at MOI 0.3 for 4-5 days in Sf-900 III SFM medium supplemented with 3% fetal bovine serum. Infected cell cultures were then centrifuged at 2000 g for 20 minutes, viral supernatant titer determined by anti-gp64 plaque assay and stored at 4° C.
Affinity-purified anti-phospho LRRK2 Ser935 sheep polyclonal antibody (Dzamko et al., 2010, Biochem. J. 430: 405-413) was biotinylated by standard methods (PerkinElmer). Anti-LRRK2 rabbit polyclonal antibody was purchased from Novus Biologicals. AlphaScreen Protein A IgG Kit (including acceptor and donor beads) was purchased from Perkin Elmer.
SH-SY5Y cells were grown in DMEM/F12 medium with 10% dialysed fetal bovine serum and harvested by treatment with 0.5% trypsin-EDTA for 5 minutes at 37° C. followed by centrifugation at 1000 rpm for 4 minutes. The cell pellet was resuspended in Opti-MEM reduced serum media (Invitrogen) at 200,000 cells/ml and mixed with the BacMam LRRK2 virus at M01=50. 50 μl cell solutions were then dispensed to each well of a 384-well plate and incubated at 37° C., 5% CO2 for 24 hours.
Serial dilutions of test compounds were prepared in Opti-MEM reduced serum media (Invitrogen) and 5.6 ul transferred from compound plate to cell assay plate to achieve a top final assay concentration of 10 uM. DMSO was used in certain wells as controls. Cells were incubated at 37° C., 5% CO2 for 60 minutes. The medium was then removed and cells lysed by addition of 20 ul cell lysis buffer (Cell Signaling Technology) and incubation at 4° C. for 20 minutes. 10 ul of antibody/acceptor bead mix [(1/1000 biotinylated-pS935 LRRK2 antibody, 1/1000 total-LRRK2 antibody, 1/100 Acceptor beads in AlphaScreen detection buffer (25 mM Hepes (pH 7.4), 0.5% Triton X-100, 1 mg/ml Dextran 500 and 0.1% BSA)] was then added to each well and plates incubated for 2 hours at ambient temperature in the dark. 10 μl of donor beads solution (1/33.3 donor beads in AlphaScreen detection buffer) was then added to each well. Following incubation for a further 2 hours at ambient temperature in the dark, plates were read on an EnVision™ plate reader at emission 520-620 nm with excitation 680 nm. Dose response curve data was based on sigmoidal dose-response model.

T1 sequence (Q5S007 whole entry): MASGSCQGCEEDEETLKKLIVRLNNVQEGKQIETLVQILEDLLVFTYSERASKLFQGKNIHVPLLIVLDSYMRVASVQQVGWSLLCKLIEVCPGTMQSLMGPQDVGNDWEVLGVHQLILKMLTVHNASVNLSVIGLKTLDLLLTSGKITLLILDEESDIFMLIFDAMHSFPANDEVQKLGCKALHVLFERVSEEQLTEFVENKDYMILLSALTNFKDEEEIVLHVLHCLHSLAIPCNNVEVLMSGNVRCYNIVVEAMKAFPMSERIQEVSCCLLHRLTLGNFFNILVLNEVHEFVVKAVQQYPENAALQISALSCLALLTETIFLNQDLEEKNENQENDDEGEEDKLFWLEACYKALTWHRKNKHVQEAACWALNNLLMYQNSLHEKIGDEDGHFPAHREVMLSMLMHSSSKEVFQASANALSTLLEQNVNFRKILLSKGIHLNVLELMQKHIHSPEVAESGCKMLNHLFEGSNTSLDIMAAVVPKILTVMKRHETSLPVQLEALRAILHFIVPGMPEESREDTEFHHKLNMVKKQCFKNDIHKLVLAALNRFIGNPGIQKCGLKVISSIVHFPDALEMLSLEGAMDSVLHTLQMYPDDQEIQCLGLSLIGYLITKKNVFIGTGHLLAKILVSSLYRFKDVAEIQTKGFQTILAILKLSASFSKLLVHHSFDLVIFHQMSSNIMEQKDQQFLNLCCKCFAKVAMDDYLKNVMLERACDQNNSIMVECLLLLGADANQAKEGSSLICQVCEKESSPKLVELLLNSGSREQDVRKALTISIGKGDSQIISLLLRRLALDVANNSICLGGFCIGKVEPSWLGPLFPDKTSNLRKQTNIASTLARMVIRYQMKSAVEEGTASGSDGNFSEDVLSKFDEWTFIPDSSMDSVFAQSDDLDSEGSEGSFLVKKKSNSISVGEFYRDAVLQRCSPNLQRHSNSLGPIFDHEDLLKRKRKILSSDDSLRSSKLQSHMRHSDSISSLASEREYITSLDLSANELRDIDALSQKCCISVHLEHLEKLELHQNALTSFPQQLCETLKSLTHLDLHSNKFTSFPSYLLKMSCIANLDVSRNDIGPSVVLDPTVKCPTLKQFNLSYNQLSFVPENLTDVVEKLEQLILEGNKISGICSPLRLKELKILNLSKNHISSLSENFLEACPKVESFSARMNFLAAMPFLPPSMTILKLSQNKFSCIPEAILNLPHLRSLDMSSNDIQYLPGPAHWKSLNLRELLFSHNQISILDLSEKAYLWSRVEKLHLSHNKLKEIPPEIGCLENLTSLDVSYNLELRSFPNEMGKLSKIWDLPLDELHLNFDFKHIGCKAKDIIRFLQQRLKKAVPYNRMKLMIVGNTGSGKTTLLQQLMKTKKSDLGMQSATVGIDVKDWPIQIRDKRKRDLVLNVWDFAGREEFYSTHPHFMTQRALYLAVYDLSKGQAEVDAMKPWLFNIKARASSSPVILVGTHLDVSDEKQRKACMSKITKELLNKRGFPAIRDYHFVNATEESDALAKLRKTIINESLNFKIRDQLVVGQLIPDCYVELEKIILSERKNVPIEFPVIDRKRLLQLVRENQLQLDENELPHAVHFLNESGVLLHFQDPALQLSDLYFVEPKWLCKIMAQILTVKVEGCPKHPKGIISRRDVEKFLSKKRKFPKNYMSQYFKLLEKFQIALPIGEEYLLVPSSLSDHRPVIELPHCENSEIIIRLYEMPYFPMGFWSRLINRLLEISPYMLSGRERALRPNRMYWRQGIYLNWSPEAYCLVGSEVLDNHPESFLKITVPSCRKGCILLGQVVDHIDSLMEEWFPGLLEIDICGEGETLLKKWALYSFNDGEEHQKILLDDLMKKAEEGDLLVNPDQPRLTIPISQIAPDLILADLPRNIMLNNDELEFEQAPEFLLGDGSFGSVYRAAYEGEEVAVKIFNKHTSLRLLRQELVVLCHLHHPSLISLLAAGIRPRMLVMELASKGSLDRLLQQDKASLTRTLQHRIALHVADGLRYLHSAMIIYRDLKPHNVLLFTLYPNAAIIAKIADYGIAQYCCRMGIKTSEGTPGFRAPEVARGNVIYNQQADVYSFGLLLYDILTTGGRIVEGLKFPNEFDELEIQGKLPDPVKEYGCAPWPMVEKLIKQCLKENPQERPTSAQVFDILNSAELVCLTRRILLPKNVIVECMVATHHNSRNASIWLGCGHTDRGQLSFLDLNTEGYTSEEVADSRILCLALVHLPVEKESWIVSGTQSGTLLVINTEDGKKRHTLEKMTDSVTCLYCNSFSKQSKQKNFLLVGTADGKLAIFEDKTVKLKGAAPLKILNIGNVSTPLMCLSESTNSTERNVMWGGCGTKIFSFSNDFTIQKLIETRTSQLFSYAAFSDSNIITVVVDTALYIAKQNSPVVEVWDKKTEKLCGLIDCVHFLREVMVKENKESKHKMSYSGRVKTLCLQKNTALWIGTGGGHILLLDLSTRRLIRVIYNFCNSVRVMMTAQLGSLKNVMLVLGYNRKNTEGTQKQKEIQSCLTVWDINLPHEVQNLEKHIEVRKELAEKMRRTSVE

Structure (SMILES) | IC50
CCOc1nc(Nc2cnn(C3CC(N4CCOCC4)CCC3(F)F)c2Cl)nc2[nH]ccc12 (single isomer, unassigned) [Example E148, trans-N-(5-chloro-1-(2,2-difluoro-5-morpholinocyclohexyl)-1H-pyrazol-4-yl)-4-ethoxy-7H-pyrrolo[2,3-d]pyrimidin-2-amine] | ≤ 100 nM
CCOc1nc(Nc2cn(C)nc2C)nc2[nH]ccc12 [Example E1, N-(1,3-dimethyl-1H-pyrazol-4-yl)-4-ethoxy-7H-pyrrolo[2,3-d]pyrimidin-2-amine] | ≤ 100 nM
CCOc1nc(Nc2cn(CCOC)nc2C)nc2[nH]ccc12 [Example E8, 4-ethoxy-N-(1-(2-methoxyethyl)-3-methyl-1H-pyrazol-4-yl)-7H-pyrrolo-[2,3-d]-pyrimidin-2-amine] | ≤ 100 nM
CCOc1nc(Nc2cnn(CCN3CC4CC4C3)c2C)nc2[nH]ccc12 (stereo not drawn) [Example E10, N-(1-(2-(3-aza-bicyclo-[3.1.0]hexan-3-yl)ethyl)-5-methyl-1H-pyrazol-4-yl)-4-ethoxy-7H-pyrrolo-[2,3-d]pyrimidin-2-amine] | ≤ 100 nM
CCOc1nc(Nc2cnn(C3CCOCC3)c2C)nc2[nH]ccc12 [Example E11, 4-ethoxy-N-(5-methyl-1-(tetrahydro-2H-pyran-4-yl)-1H-pyrazol-4-yl)-7H-pyrrolo-[2,3-d]-pyrimidin-2-amine] | ≤ 100 nM
CCOc1nc(Nc2cnn(C3CCN(C)CC3)c2C)nc2[nH]ccc12 [Example E18, 4-ethoxy-N-(5-methyl-1-(1-methylpiperidin-4-yl)-1H-pyrazol-4-yl)-7H-pyrrolo-[2,3-d]-pyrimidin-2-amine] | ≤ 100 nM
CCOc1nc(Nc2cnn(C3CCOCC3)c2Cl)nc2[nH]ccc12 [Example E22, N-(5-chloro-1-(tetrahydro-2H-pyran-4-yl)-1H-pyrazol-4-yl)-4-ethoxy-7H-pyrrolo-[2,3-d]-pyrimidin-2-amine] | ≤ 100 nM
CCOc1nc(Nc2cn(CCF)nc2C)nc2[nH]ccc12 [Example E27, 4-ethoxy-N-(1-(2-fluoroethyl)-3-methyl-1H-pyrazol-4-yl)-7H-pyrrolo-[2,3-d]-pyrimidin-2-amine] | ≤ 100 nM
CCOc1nc(Nc2cnn(C3COC3)c2C)nc2[nH]ccc12 [Example E34, 4-ethoxy-N-(5-methyl-1-(oxetan-3-yl)-1H-pyrazol-4-yl)-7H-pyrrolo[2,3-d]pyrimidin-2-amine] | ≤ 100 nM
CCOc1nc(Nc2cnn(C3CCOCC3)c2C)nc2[nH]cc(C#N)c12 [Example E46, 4-ethoxy-2-((5-methyl-1-(tetrahydro-2H-pyran-4-yl)-1H-pyrazol-4-yl)-amino)-7H-pyrrolo-[2,3-d]-pyrimidine-5-carbonitrile] | ≤ 100 nM
CCOc1nc(Nc2cnn(CCOC)c2C)nc2[nH]cc(C#N)c12 [Example E47, 4-ethoxy-2-((1-(2-methoxyethyl)-5-methyl-1H-pyrazol-4-yl)-amino)-7H-pyrrolo-[2,3-d]-pyrimidine-5-carbonitrile] | ≤ 100 nM
CCOc1nc(Nc2cn(CCOC)nc2C)nc2[nH]cc(C#N)c12 [Example E48, 4-ethoxy-2-((1-(2-methoxyethyl)-3-methyl-1H-pyrazol-4-yl)-amino)-7H-pyrrolo-[2,3-d]-pyrimidine-5-carbonitrile] | ≤ 100 nM
CCOc1nc(Nc2cnn([C@H]3CCN(C)C3)c2C)nc2[nH]cc(C#N)c12 [Example E49, (S)-4-ethoxy-2-((5-methyl-1-(1-methyl-pyrrolidin-3-yl)-1H-pyrazol-4-yl)-amino)-7H-pyrrolo-[2,3-d]pyrimidine-5-carbonitrile] | ≤ 100 nM
CCOc1nc(Nc2cnn(CCF)c2C)nc2[nH]cc(C#N)c12 [Example E50, 4-ethoxy-2-((1-(2-fluoroethyl)-5-methyl-1H-pyrazol-4-yl)-amino)-7H-pyrrolo-[2,3-d]-pyrimidine-5-carbonitrile] | ≤ 100 nM
CCOc1nc(Nc2cnn([C@@H]3CCN(C)C3)c2C)nc2[nH]cc(C#N)c12 [Example E51, (R)-4-ethoxy-2-((5-methyl-1-(1-methyl-pyrrolidin-3-yl)-1H-pyrazol-4-yl)-amino)-7H-pyrrolo-[2,3-d]pyrimidine-5-carbonitrile] | ≤ 100 nM
CCOc1nc(Nc2cnn(C3CCN(C4COC4)CC3)c2C)nc2[nH]ccc12 [Example E53, 4-ethoxy-N-(5-methyl-1-(1-(oxetan-3-yl)-piperidin-4-yl)-1H-pyrazol-4-yl)-7H-pyrrolo-[2,3-d]-pyrimidin-2-amine] | ≤ 100 nM
CCOc1nc(Nc2cnn([C@H]3CC[C@@H](O)CC3)c2C)nc2[nH]ccc12 [Example E54, cis-4-(4-((4-ethoxy-7H-pyrrolo[2,3-d]pyrimidin-2-yl)amino)-5-methyl-1H-pyrazol-1-yl)-cyclohexanol] | ≤ 100 nM
CCOc1nc(Nc2cnn(CCN3CC[C@@H](F)C3)c2C)nc2[nH]ccc12 [Example E63, (R)-4-ethoxy-N-(1-(2-(3-fluoropyrrolidin-1-yl)-ethyl)-5-methyl-1H-pyrazol-4-yl)-7H-pyrrolo[2,3-d]pyrimidin-2-amine] | ≤ 100 nM
CCOc1nc(Nc2cnn(CCN3CC[C@H](F)C3)c2C)nc2[nH]ccc12 [Example E64, (S)-4-ethoxy-N-(1-(2-(3-fluoropyrrolidin-1-yl)ethyl)-5-methyl-1H-pyrazol-4-yl)-7H-pyrrolo[2,3-d]pyrimidin-2-amine] | ≤ 100 nM
CCOc1nc(Nc2cnn(C3CCN(C4COC4)C3)c2C)nc2[nH]ccc12 (stereo not drawn) [Example E66, 4-Ethoxy-N-(5-methyl-1-(1-(oxetan-3-yl)pyrrolidin-3-yl)-1H-pyrazol-4-yl)-7H-pyrrolo[2,3-d]pyrimidin-2-amine] | ≤ 100 nM
CCOc1nc(Nc2cnn(CCN3CCOC[C@H]3C)c2C)nc2[nH]ccc12 [Example E81, (R)-4-ethoxy-N-(5-methyl-1-(2-(3-methylmorpholino)ethyl)-1H-pyrazol-4-yl)-7H-pyrrolo [2,3-d]pyrimidin-2-amine] | ≤ 100 nM

Other lines, results leading:

IC50 | Structure (SMILES)
≤ 100 nM | CCOc1nc(Nc2cnn(C)c2Cl)nc2[nH]ccc12 [Example E4, N-(5-chloro-1-methyl-1H-pyrazol-4-yl)-4-ethoxy-7H-pyrrolo-[2,3-d]-pyrimidin-2-amine]
≤ 100 nM | CCOc1nc(Nc2cnn(CCOC)c2C)nc2[nH]ccc12 [Example E9, 4-ethoxy-N-(1-(2-methoxyethyl)-5-methyl-1H-pyrazol-4-yl)-7H-pyrrolo-[2,3-d]pyrimidin-2-amine]
≤ 100 nM | CCOc1nc(Nc2cnn(CC(C)(C)O)c2Cl)nc2[nH]ccc12 [Example E15, 1-(5-chloro-4-((4-ethoxy-7H-pyrrolo-[2,3-d]pyrimidin-2-yl)amino)-1H-pyrazol-1-yl)-2-methylpropan-2-ol]
≤ 100 nM | CCOc1nc(Nc2cnn(CCF)c2C)nc2[nH]ccc12 [Example E26, 4-ethoxy-N-(1-(2-fluoroethyl)-5-methyl-1H-pyrazol-4-yl)-7H-pyrrolo-[2,3-d]-pyrimidin-2-amine]
≤ 100 nM | CCOc1nc(Nc2cnn(CC3COC3)c2Cl)nc2[nH]ccc12 [Example E28, N-(5-chloro-1-(oxetan-3-yl-methyl)-1H-pyrazol-4-yl)-4-ethoxy-7H-pyrrolo-[2,3-d]pyrimidin-2-amine]
≤ 100 nM | CCOc1nc(Nc2cnn(CC3COC3)c2C)nc2[nH]ccc12 [Example E29, 4-ethoxy-N-(5-methyl-1-(oxetan-3-yl-methyl)-1H-pyrazol-4-yl)-7H-pyrrolo-[2,3-d]pyrimidin-2-amine]
≤ 100 nM | CCOc1nc(Nc2cnn(C3COC3)c2Cl)nc2[nH]ccc12 [Example E35, N-(5-chloro-1-(oxetan-3-yl)-1H-pyrazol-4-yl)-4-ethoxy-7H-pyrrolo-[2,3-d]pyrimidin-2-amine]
≤ 100 nM | CCOc1nc(Nc2cnn(CC(C)(C)C#N)c2C)nc2[nH]ccc12 [Example E62, 3-(4-((4-ethoxy-7H-pyrrolo-[2,3-d]pyrimidin-2-yl)amino)-5-methyl-1H-pyrazol-1-yl)-2,2-dimethylpropanenitrile]
≤ 100 nM | CCOc1nc(Nc2cnn(C(C)(C)CO)c2C)nc2[nH]ccc12 [Example E65, 2-(4-((4-ethoxy-7H-pyrrolo-[2,3-d]pyrimidin-2-yl)amino)-5-methyl-1H-pyrazol-1-yl)-2-methylpropan-1-ol]
